Measured values reported in patent US20240133884A1, “COMPOSITIONS AND METHODS FOR DETECTING TRYPANOSOMA CRUZI INFECTION” (University of Georgia Research Foundation, Inc., priority 2022, published 2024).

Assays:
Standard Ames study = type: cell-based
[1] = system: mammalian enzymes, receptors and ion channels; experiment: Safety pharmacology: affinity for a broad array of mammalian enzymes, receptors and ion channels; type: binding
cytochrome P450 enzymes = experiment: Inhibition of representative cytochrome P450 enzymes; type: in vitro ADME; conditions: 10 uM
[2] = system: T. cruzi serine carboxypeptidase (CBP); experiment: Sensitivity of serine carboxypeptidase (CBP) knockout T. cruzi amastigotes; type: cell-based, Trypanosoma cruzi
Procedure: The in vitro anti-T. cruzi amastiogote activity assay was performed and optimized based on the protocol described previously (Canavaci, et al., PLoS neglected tropical diseases 4, e740 (2010)). The change in tdTomato fluorescence intensity was determined as a measurement of growth over 72 hours of culture. For assaying drug effects on extracellular amastigotes, trypomastigotes were collected from infected Vero cell cultures and converted in acidic media as previously described (Tomlinson, et al., Parasitology 110 (Pt 5), 547-554 (1995)). Amastigotes (50,000/well) were incubated with 2-fold serial dilutions of compounds for 48 hours. The ATP production was used as an indication of growth in this case, and was measured by ATPlite Luminescence ATP Detection Assay System (PerkinElmer). Both fluorescence and luminescence were read using a BioTek Synergy Hybrid Multi-Mode reader equipped with the software Gene5 v 2.0 (BioTek). […]
The CBPs knockout was produced using ribonucleoprotein (RNP) complexes as previously described (Soares Medeiros, et al., mBio 8 (2017)). Briefly, Brazil tdTomato strain epimastigotes were electroporated with RNP complexes containing SaCas9 and an sgRNA targeting CBP gene TcBrA4_0048170, plus a repair template containing stop codons in all three reading frames and the M13 sequence for use as a PCR anchor. […]

T. cruzi (Brazil strain) [3] = experiment: Mouse cure assays (daily oral treatment, cyclophosphamide immunosuppression, hemoculture, skeletal muscle qPCR); type: in vivo, Trypanosoma cruzi
Procedure: (§1) Cure assays: Male or female C57BL/6 mice were intraperitoneally infected with 10^4 trypomastigotes of the Brazil strain. Mouse infection was confirmed at 25-30 dpi by detection of CD8^+ T cells specific against the T. cruzi TSKb20 peptide in blood (Martin, et al., PLoS pathogens 2, e77 (2006)). Compounds resuspended in 1% carboxymethyl cellulose and 0.1% Tween 80, were administered daily by gavage at the specified concentrations. In order to optimally detect persistent infection, immune responses in the mice were suppressed by intraperitoneal injection of four doses of cyclophosphamide every 2-3 days (200 mg/kg/day), beginning one week after the end of therapeutic treatment. At the end of the immunosuppression regimen, peripheral blood was checked under light microscope for parasites and cultured in LDNT media (Bustamante, et al., The Journal of infectious diseases 209, 150-162 (2014)). […] In vivo killing time assays: C57BL/6 mice were infected with 2.5×10^5 Luciferase-expressing T. cruzi (Brazil strain) in the foot pads, and two days later one oral dose of AN14353 (25 mg/kg) was administered. The bioluminescent signal in the feet after i.p. injection of D-luciferin (PerkinElmer; 250 mg/kg) was measured in a Lumina II IVIS imager (PerkinElmer). Low dose short treatment: Hairless mice (SKH-1) were infected intraperitoneally with 5×10^4 Luciferase expressing T. cruzi (Colombiana strain) and orally treated from 12 to 22 dpi with 1, 2.5 or 5 mg/kg of AN16109 or AN15368. Bioluminiscence signal of the whole body was measure after D-luciferin injection in a Lumina II IVIS in vivo imager equipped with the Living Imaging 4.0 software (PerkinElmer).

[4] = High dose 7-day toxicology studies in rats; type: in vivo; conditions: for dose proportionality of exposure: high dose 7-day toxicology studies, oral; for NOAEL dose: allometric scaling from rats
T. cruzi (Brazil strain) [5] = experiment: In vivo killing time assay: mouse footpads, Luciferase-expressing T. cruzi; parameters: species or system Trypanosoma cruzi; conditions: mice, single oral dose 25 mg/kg (FIG. 1C)
Procedure: as §1, with “Low dose short treatment: Hairless mice (SKH-1) were infected intraperitoneally with 5×10^4 Luciferase expressing T. cruzi (Colombiana strain) and orally treated from 12 to 22 dpi with 1, 2.5 or 5 mg/kg of AN16109 or AN15368. Bioluminiscence signal of the whole body was measure after D-luciferin injection in a Lumina II IVIS in vivo imager equipped with the Living Imaging 4.0 software (PerkinElmer).” left out

T. cruzi mRNA = experiment: RNA-Seq of infected Vero cells: parasite mRNA relative to host cell mRNA; type: cell-based, Trypanosoma cruzi; conditions: as early as 6 hrs after addition (FIG. 5C)
Procedure: Vero cells (10^6) were infected with 10^7 CL strain trypomastigotes of T. cruzi for 2 days before treating with either 5 uM benznidazole or 30 nM AN14353. The drug concentration used for treatment was set at 5 times the IC50. Samples were collected at several time points for RNA extraction as previously described (Minning, et al., BMC genomics 10, 370 (2009)). rRNA-depleted RNA library construction and RNA sequencing using Illumina Nextseq 75PE was carried out by Georgia Genomics and Bioinformatics Core (GGBC, University of Georgia, Georgia). Illumina reads with mean quality lower than 30 (Phred Score based) were removed from analysis, then mapped to CL Brener genome (TritrypDB release-33) and African green monkey genome (Osada, et al., DNA Res 21, 673-683 (2014)) using the HiSAT software package v0.1.6^50 with default parameters. The mapping rate was quantified by HTseq v0.6.1 (Anders, et al., Bioinformatics 31, 166-169 (2015)).

For `Cc1c(C(=O)N[C@H](C(=O)OCC2CCOCC2)C(C)C)ccc2c1B(O)OC2` [AN15368], the “genotoxicity, Ames” value (Standard Ames study) was “non-genotoxic”, the “affinity for a broad array of mammalian enzymes, receptors and ion channels” value [1] was “little to no affinity” and the “inhibition of representative cytochrome P450 enzymes” value (cytochrome P450 enzymes) was “did not demonstrate significant inhibition”. For the same compound, the “increased resistance after disruption of CBPs” value ([2]; intracellular amastigotes, TcCBP KO vs WT (FIG. 5E)) was 1000 ×, the “cure of T. cruzi infection in mice” value (T. cruzi (Brazil strain) [3]; in words (FIGS. 3A-3E)) was “cures T. cruzi infection in mice” and the minimal efficacious dose (T. cruzi (Brazil strain) [3]; mice (FIG. 3E)) was 2.5 mg/kg. For the same compound, the “dose proportionality of exposure” value [4] was “good dose proportional exposure”, the NOAEL dose ([4]; humans) was 19.4 mg/kg and the NOAEL dose ([4]; monkeys) was 60.5 mg/kg. For the same compound, the NOAEL ([4]; rats) was 120 mg/kg, the “drug accumulation between the first and seventh days” value ([4]; rats) was “no evidence of drug accumulation” and the “total plasma exposure (AUC0-24 h)” value ([4]; rats, 120 mg/kg/day) was “approximately 30,000 ng*hr/mL”. For the same compound, the “effects on hematology and clinical chemistry” value ([4]; rats, 120 mg/kg/day or lower) was “none” and the “effects on hematology and clinical chemistry” value ([4]; rats, 150 mg/kg) was “modest effects”.

For `Cc1c(C(=O)N[C@H](C(=O)OCc2ccc(F)c(F)c2)C(C)C)ccc2c1B(O)OC2` [AN14353], the “in vivo trypanocidal activity (bioluminescence of feet over 72 hrs)” value (T. cruzi (Brazil strain) [5]) was “rapid in vivo trypanocidal activity”, the “genotoxicity, Ames” value (Standard Ames study) was “non-genotoxic” and the “affinity for a broad array of mammalian enzymes, receptors and ion channels” value [1] was “little to no affinity”. For the same compound, the “inhibition of representative cytochrome P450 enzymes” value (cytochrome P450 enzymes) was “did not demonstrate significant inhibition”, the “decrease of in vitro sensitivity of T. cruzi amastigotes after disruption of serine carboxypeptidases” value ([2]; CBP KO vs wild type (FIG. 2C)) was “up to 100 fold” and the “parasite mRNA in T. cruzi-infected host cells” value (T. cruzi mRNA) was “marked and continuing reduction in parasite mRNA”. The “resolution of infections in immunodeficient mice” value (T. cruzi (Brazil strain) [3]; IFN-gamma deficient mice, 25 mg/kg, 40 days (FIG. 1E)) was “consistently resolve”, the “resolution of established T. cruzi infections” value (T. cruzi (Brazil strain) [3]; wild-type mice, 25 mg/kg, 40 day treatment (FIG. 1D)) was “consistently resolve established T. cruzi infections” and the “dose proportionality of exposure” value [4] was “non-dose proportional exposure”.
